Assay results published in PMC10537604, “Development and Assessment of 1,5–Diarylpyrazole/Oxime Hybrids Targeting EGFR and JNK–2 as Antiproliferative Agents: A Comprehensive Study through Synthesis, Molecular Docking, and Evaluation” (Molecules, 2023).

Key:
[1] = Nitric oxide release, Griess colorimetric method; type: physicochemical; details: phosphate buffer pH 7.4, N-acetylcysteine
Protocol: For the indirect determination of NO, the Griess colorimetric approach was utilized, which includes spectrophotometry measurements of the stable decomposition products NO2^− and NO3^−. This method requires that NO3^− is first reduced to NO2^− and then NO2^− is determined by the Griess reaction that includes two steps, the first step is a diazotization reaction in which the NO-derived nitrogen agent, dinitrogen trioxide (N2O3), which is produced by the spontaneous oxidation of NO with sulfanilamide to form the diazonium ion, is used. […] In order to evaluate thiol-induced NO generation from the appropriate compounds, including NO-donating oximes 8a–b, 8d–i, and 10a–c, they were incubated in aqueous phosphate buffer of pH 7.4 in the presence of excess N-acetylcysteine, which serves as a source of thiols that are essential for the release of NO from oximes. The signal intensity of the dye is proportional to the amount of NO released. To quantify the amount of NO released, a standard curve was made by measuring the change in absorbance of various concentrations of standard sodium nitrite solutions treated by the same way. […] At the first hour, the amount of nitric oxide released increased in compounds 8i, 8b, and 8h, while the maximum release of nitric oxide occurring in compounds 8b and 8h was at 2 h. Then, the amount of nitic oxide released declined, which may explain the biological importance of oxime moiety as a source of nitric oxide release in comparison with ketone intermediates 7a–j and 9a–c, as shown in the anticancer activity of oxime derivatives.
The nitrite calibration curve in addition to the absorbance of the tested compounds were measured on Shimadzu UV-160, UV-Visible spectrophotometer (Shimadzu, Tokyo, Japan). The tested compounds were prepared as solutions in DMF and diluted with the buffer system until a concentration of 100 mM. N-Acetyl cysteine solution was prepared in a concentration of 500 mM in methanol. Griess reagent consists of 0.1% w/v NED solution in water and sulfanilamide solution (1% w/v of sulfanilamide in 5% w/v phosphoric acid). Nitrite standard solution (0.1 M sodium nitrite in water) stock solution was prepared, from which a dilute solution of 100 μM nitrite solution was prepared by dilution 1 mL of the stock solution to 1000 mL with phosphate buffer of pH 7.4. From this solution, 4 serials 2-fold dilutions were performed to generate different concentrations of the nitrite solution (100.00, 50.00, 25.00, and 12.50 μM) and these concentrations were used for nitrite calibration curve.
Sulfanilamide and NEDD solutions were kept at 25 °C; […] of sulfanilamide solution was added to each dilution of the prepared standard nitrite solution. The mixture was left at 25 °C for 5–10 min protected from light. To this mixture, […] of the NEDD solution was added and the mixture was again left for 5–10 min at 25 °C protected from light. […] A plot of the average absorbance value for each concentration of the nitrite standard solution as a function of “Y” against nitrite concentration as a function of “X” was constructed to generate a standard nitrite calibration curve at pH 7.4.
The amount of NO released from the tested compounds 8a–b, 8d–I, and 10a–c was measured using the Griess colorimetric method either in phosphate buffer of pH 7.4 in the presence of N-acetyl cysteine, which serves as a source of thiols. The amount of NO released from the tested compounds was measured relative to NO released from standard sodium nitrite solution.
Different solutions of the tested compounds 8a–b, 8d–i, and 10a–c in DMF were diluted using phosphate buffer of pH 7.4 till a final concentration of 100 mM (test solutions). To […] of different test solutions, […] of N-acetyl cysteine solution was added and the obtained solution was kept in an incubator at 37 °C (treated solutions). […]

[2] = test system: human hepatocellular carcinoma cell line HepG2; experiment: WST-8 antiproliferative assay, HepG2; type: cell-based; details: HepG2, 100 µM, WST-8 assay, read-out: Growth Inhibition (GI%) HepG2
Protocol: Compounds 7a–j, 8a–j, 9a–c, and 10a–c were evaluated for in vitro anticancer activities against five different cancer cell lines, namely, human colorectal adenocarcinoma cell lines DLD-1, human cervical cancer cell line Hela, human pancreatic cancer cell line SUIT-2, human myelogenous leukemia cell line K562, and human hepatocellular carcinoma cell line HepG2 using WST-8 assay at concentrations of 100 µM to investigate the growth inhibition percent (GI%) of each compound using daunorubicin as a reference drug. […]. […] So, as a conclusion on the SAR study of those compounds as antiproliferative agents, the oxime moiety potentiated the anticancer activity and electron donating groups on R1 and R2 played an important role on this activity. Moreover, the sulfamoyl moiety on R3 seems to play a potential role in the activity of the prepared compounds (Table 1).
All selected compounds and daunorubicin were recorded as the minimum concentration required to inhibit half cell growth (IC50) and the results are listed in Table 2.
Evaluation of anticancer activity was performed according to the standard water-soluble tetrazolium-8 (WST-8) assay at the Faculty of Engineering, Yamagata University, Yonezawa, Japan, using an MTP-310 absorbance microplate reader. The EGFR inhibitory assay was carried out at the Faculty of Engineering, Yamagata University, Yonezawa, Japan, according to the protocol enzyme linked immunosorbent assay (ELISA) kits (Douset sandwich ELISA test, recombinant mouse EGFR). The JNK-2 inhibitory assay was performed at the Faculty of Engineering, Yamagata University, Yonezawa, Japan, according to the protocol of enzyme-linked immunosorbent assay (ELISA), the assay was carried out using the JNK-2 kit (Simple Step ELISA, pT183/Y185, Abcam Company, Cambridge, CB2 0AX, UK). Apoptosis and cell cycle analysis was performed at Faculty of medicine, Yamagata University, Yamagata, Japan, using BD FACS melody. Molecular docking was performed at the Nano Medical Engineering Laboratory, RIKEN Cluster for Pioneering Researchers, RIEKN, Japan, using ICM-Pro 3.8 software (MolSoft L.L.C., San Diego, CA, USA).
According to the standard water-soluble tetrazolium-8 (WST-8) assay, the current synthesized compounds have been tested for their anticancer activities against different five cancer cell lines; DLD-1, Hela, K562, SUIT-2, and HepG2 and daunorubicin was used as reference drug by the WST-8 assay. The five cells were maintained in a suspension culture, (Dulbecco’s modified eagle medium (DMEM) for SUIT-2, Hela, and HepG2 or PRIM for K562 and DLD), supplemented with 5% FBS (Fetal Bovine Serum) containing 1% of a penicillin-streptomycin (1:1) mixture. A 100 μL aliquot of cells (10,000 cells/mL) was added to a 96 well plate and incubated for 24 h at 37 °C in a humidified incubator containing 5% CO2 in the air. After 24 h, a 10 μL aliquot of test compound (concentrations varying in the range of 10–150 µM) was added to each of the 96 wells and incubated for 24 h. Then A 10 μL WST-8 solution (mixture of WST-8 and 1-methoxy PMS) was added to each well and the incubation continued for 3 h. The visible absorbance at 450 nm and 630 nm as the reference wavelength of each well was quantified using an MTP-310 absorbance microplate reader. Daunorubicin was used as a positive control. The results of cytotoxicity were recorded as growth inhibition percentages and as IC50 values.

Row | Structure (SMILES) | Amount of NO Released (mol/mol) 1 h [1] [mol/mol] | Amount of NO Released (mol/mol) 2 h [1] [mol/mol] | Amount of NO Released (mol/mol) 3 h [1] [mol/mol] | Amount of NO Released (mol/mol) 4 h [1] [mol/mol] | inhibition at 100 µM [2] [%]
1 | C/C(=N\O)c1ccc(NC(=O)c2cc(-c3ccccc3)n(-c3ccc(S(N)(=O)=O)cc3)n2)cc1 [Compound 10a, (E)–N–(4–(1–(Hydroxyimino)ethyl)phenyl)–5–phenyl–1–(4–sulfamoylphenyl)–1H–pyrazole–3–carboxamide] | 0.054 ± 0.023 | 0.108 ± 0.043 | 0.069 ± 0.024 | 0.036 ± 0.012 | 72
2 | COc1cc(/C(C)=N/O)ccc1OC(=O)c1cc(-c2ccccc2)n(-c2ccc(S(N)(=O)=O)cc2)n1 [Compound 8f, (E)–4–(1–(Hydroxyimino)ethyl)–2–methoxyphenyl 5–phenyl–1–(4–sulfamoyl phenyl)–1H–pyrazole–3–carboxylate] | 0.096 ± 0.036 | 0.116 ± 0.045 | 0.079 ± 0.030 | 0.048 ± 0.018 | 80
3 | COc1cc(/C(C)=N/O)ccc1OC(=O)c1cc(-c2ccc(C)cc2)n(-c2ccccc2)n1 [Compound 8b, (E)–4–(1–(Hydroxyimino)ethyl)–2–methoxyphenyl 1–phenyl–5–p–tolyl–1H–pyrazole–3–carboxylate] | 0.102 ± 0.039 | 0.159 ± 0.019 | 0.105 ± 0.025 | 0.095 ± 0.030 | 107
4 | COc1ccc(-c2cc(C(=O)Nc3ccc(/C(C)=N/O)cc3)nn2-c2ccc(S(N)(=O)=O)cc2)cc1 [Compound 10b, (E)–N–(4–(1–(Hydroxyimino)ethyl)phenyl)–5–(4–methoxyphenyl)–1–(4–sulfamoylphenyl)–1H–pyrazole–3–carboxamide] | 0.095 ± 0.035 | 0.114 ± 0.046 | 0.079 ± 0.031 | 0.031 ± 0.018 | 2
5 | COc1ccc(-c2cc(C(=O)Nc3ccc(/C(C)=N/O)cc3)nn2-c2ccc(S(N)(=O)=O)cc2)cc1OC [Compound 10c, (E)–5–(3,4–Dimethoxyphenyl)–N–(4–(1–(hydroxyimino)ethyl)phenyl)–1–(4–sulfamoyl phenyl)–1H–pyrazole–3–carboxamide] | 0.075 ± 0.036 | 0.151 ± 0.049 | 0.114 ± 0.030 | 0.081 ± 0.020 | 52
6 | COc1ccc(-c2cc(C(=O)Oc3ccc(/C(C)=N/O)cc3OC)nn2-c2ccccc2)cc1OC [Compound 8e, (E)–4–(1–(Hydroxyimino)ethyl)–2–methoxyphenyl 5–(3,4–dimethoxy phenyl)–1–phenyl–1H–pyrazole–3–carboxylate] | 0.064 ± 0.022 | 0.120 ± 0.046 | 0.081 ± 0.030 | 0.048 ± 0.018 | 99
7 | COc1cc(/C(C)=N/O)ccc1OC(=O)c1cc(-c2ccc(C)cc2)n(-c2ccc(S(N)(=O)=O)cc2)n1 [Compound 8g, (E)–4–(1–(Hydroxyimino)ethyl)–2–methoxyphenyl 1–(4–sulfamoylphenyl)–5–p–tolyl–1H–pyrazole–3–carboxylate] | 0.083 ± 0.035 | 0.154 ± 0.044 | 0.141 ± 0.039 | 0.089 ± 0.019 | 93
8 | COc1cc(/C(C)=N/O)ccc1OC(=O)c1cc(-c2ccc(Cl)cc2)n(-c2ccc(S(N)(=O)=O)cc2)n1 [Compound 8i, (E)–4–(1–(Hydroxyimino)ethyl)–2–methoxyphenyl 5–(4–chlorophenyl)–1–(4–sulfamoyl phenyl)–1H–pyrazole–3–carboxylate] | 0.105 ± 0.029 | 0.115 ± 0.018 | 0.109 ± 0.046 | 0.087 ± 0.035 | 90
9 | COc1ccc(-c2cc(C(=O)Oc3ccc(/C(C)=N/O)cc3OC)nn2-c2ccc(S(N)(=O)=O)cc2)cc1 [Compound 8h, (E)–4–(1–(Hydroxyimino)ethyl)–2–methoxyphenyl 5–(4–methoxyphenyl)–1–(4–sulfamoyl phenyl)–1H–pyrazole–3–carboxylate] | 0.099 ± 0.029 | 0.158 ± 0.014 | 0.104 ± 0.033 | 0.094 ± 0.0022 | 63
